ChEMBL document CHEMBL1201862, “PubChem BioAssay data set” (2004)
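Where inhibition never reached the appropriate level, the endpoint shown equals the highest concentration tested. Otherwise, values were interpolated linearly from a five-concentration, 48-hour dose response in 96-well plates. Abbreviation: GI50, concentration required for 50% inhibition of growth.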 Calls of active or inactive are those of the source. No stated cut-off is given here; in the data, active = GI50 up to about 1.1 µM and inactive = higher.

Tests used:
Test in all cases: NCI anticancer screen, dose series, 48 h
[1] = tested on: M14
[2] = tested on: NCI-H226
[3] = tested on: T47D
[4] = tested on: DU-145
[5] = tested on: HOP-62
[6] = tested on: BT-549
[7] = tested on: NCI/ADR-RES
[8] = tested on: PC-3
[9] = tested on: RXF 393
[10] = tested on: MDA-N
[11] = tested on: Hs-578T
[12] = tested on: SR
[13] = tested on: U-251
[14] = tested on: MDA-MB-231
[15] = tested on: 786-0
[16] = tested on: MDA-MB-435
[17] = tested on: MCF7
[18] = tested on: K562
[19] = tested on: HCC 2998

Q: With `COc1ccc2c(Cc3c4ccccc4cc4ccccc34)cncc2c1O` as the compound, how does the GI50 [1] read?
A: 2.26 µM (inactive)

Q: What about the GI50 [2] of the same compound?
A: 3.27 µM (inactive)

Q: What about the GI50 [3] of the same compound?
A: 17.2 µM (inactive)

Q: What about the GI50 [4] of the same compound?
A: 2.77 µM (inactive)

Q: What about the GI50 [5] of the same compound?
A: 4.11 µM (inactive)

Q: What about the GI50 [6] of the same compound?
A: 5.69 µM (inactive)

Q: What about the GI50 [7] of the same compound?
A: 0.67 µM (active)

Q: What about the GI50 [8] of the same compound?
A: 5.14 µM (inactive)

Q: What about the GI50 [9] of the same compound?
A: 3.4 µM (inactive)

Q: What about the GI50 [10] of the same compound?
A: 0.404 µM (active)

Q: And the GI50 [11]?
A: 1.58 µM (inactive)

Q: What about the GI50 [12] of the same compound?
A: 0.21 µM (active)

Q: What about the GI50 [13] of the same compound?
A: 1.45 µM (inactive)

Q: What about the GI50 [14] of the same compound?
A: 2.51 µM (inactive)

Q: What about the GI50 [15] of the same compound?
A: 4.21 µM (inactive)

Q: And the GI50 [16]?
A: 0.239 µM (active)

Q: And the GI50 [17]?
A: 0.638 µM (active)

Q: And the GI50 [18]?
A: 0.655 µM (active)

Q: How did the GI50 [1] turn out when `Oc1cccc(-c2nc3ccccc3s2)c1` was run?
A: 23.2 µM (inactive)

Q: What about the GI50 [2] of the same compound?
A: 10.8 µM (inactive)

Q: What about the GI50 [3] of the same compound?
A: 10.2 µM (inactive)

Q: What about the GI50 [4] of the same compound?
A: 38.7 µM (inactive)

Q: What about the GI50 [5] of the same compound?
A: 22.5 µM (inactive)

Q: What about the GI50 [6] of the same compound?
A: 33 µM (inactive)

Q: What about the GI50 [7] of the same compound?
A: 21.9 µM (inactive)

Q: And the GI50 [8]?
A: 23.2 µM (inactive)

Q: What about the GI50 [9] of the same compound?
A: 32.1 µM (inactive)

Q: And the GI50 [10]?
A: 27.8 µM (inactive)

Q: What about the GI50 [11] of the same compound?
A: 15.5 µM (inactive)

Q: What about the GI50 [12] of the same compound?
A: 29.2 µM (inactive)

Q: And the GI50 [13]?
A: 39.5 µM (inactive)

Q: And the GI50 [14]?
A: 22.1 µM (inactive)

Q: And the GI50 [15]?
A: 71.6 µM (inactive)

Q: And the GI50 [16]?
A: 30.7 µM (inactive)

Q: What about the GI50 [17] of the same compound?
A: 16.4 µM (inactive)

Q: What about the GI50 [18] of the same compound?
A: 55.6 µM (inactive)

Q: Which GI50 [1] does the source give for `NN=C(S)Nc1cccc(Cl)c1` here?
A: 88.7 µM (inactive)

Q: What about the GI50 [3] of the same compound?
A: 74.8 µM (inactive)

Q: What about the GI50 [4] of the same compound?
A: > 100 µM (inactive)

Q: And the GI50 [5]?
A: > 100 µM (inactive)

Q: What about the GI50 [6] of the same compound?
A: > 100 µM (inactive)

Q: What about the GI50 [19] of the same compound?
A: 64.7 µM (inactive)

Q: And the GI50 [7]?
A: 53.5 µM (inactive)

Q: What about the GI50 [8] of the same compound?
A: 48.2 µM (inactive)

Q: What about the GI50 [9] of the same compound?
A: > 100 µM (inactive)

Q: What about the GI50 [10] of the same compound?
A: > 100 µM (inactive)

Q: And the GI50 [11]?
A: > 100 µM (inactive)

Q: What about the GI50 [13] of the same compound?
A: > 100 µM (inactive)

Q: And the GI50 [14]?
A: > 100 µM (inactive)

Q: What about the GI50 [15] of the same compound?
A: > 100 µM (inactive)

Q: And the GI50 [16]?
A: 83.6 µM (inactive)

Q: What about the GI50 [17] of the same compound?
A: > 100 µM (inactive)

Q: What about the GI50 [18] of the same compound?
A: 36.6 µM (inactive)

Q: Which results are given for `N=C(N)NCC(N)C(=O)O` (stereo not drawn)?
A: GI50 [1]: > 100 µM (inactive); GI50 [2]: > 100 µM (inactive); GI50 [3]: > 100 µM (inactive); GI50 [4]: > 100 µM (inactive); GI50 [5]: > 100 µM (inactive); GI50 [6]: > 100 µM (inactive); GI50 [7]: > 100 µM (inactive); GI50 [8]: > 100 µM (inactive); GI50 [9]: > 100 µM (inactive); GI50 [10]: > 100 µM (inactive); GI50 [11]: > 100 µM (inactive); GI50 [12]: > 100 µM (inactive); GI50 [13]: > 100 µM (inactive); GI50 [14]: > 100 µM (inactive); GI50 [15]: > 100 µM (inactive); GI50 [16]: > 100 µM (inactive); GI50 [17]: > 100 µM (inactive); GI50 [18]: > 100 µM (inactive)

Q: `Cc1ccc(C2(O)c3ccccc3C(=O)N(C)C2(O)c2ccc(C)cc2)cc1` (stereo not drawn) was tested. Which GI50 [1] did it give?
A: 62.7 µM (inactive)

Q: What about the GI50 [3] of the same compound?
A: > 100 µM (inactive)

Q: And the GI50 [4]?
A: > 100 µM (inactive)

Q: And the GI50 [5]?
A: 22 µM (inactive)

Q: And the GI50 [6]?
A: 91.8 µM (inactive)

Q: And the GI50 [19]?
A: 79.3 µM (inactive)

Q: And the GI50 [7]?
A: 39.4 µM (inactive)

Q: What about the GI50 [8] of the same compound?
A: > 100 µM (inactive)

Q: And the GI50 [9]?
A: 32.3 µM (inactive)

Q: And the GI50 [10]?
A: > 100 µM (inactive)

Q: What about the GI50 [11] of the same compound?
A: 22.6 µM (inactive)

Q: And the GI50 [12]?
A: 2.39 µM (inactive)

Q: What about the GI50 [13] of the same compound?
A: 17.4 µM (inactive)

Q: And the GI50 [14]?
A: 28.2 µM (inactive)

Q: What about the GI50 [15] of the same compound?
A: 37 µM (inactive)

Q: What about the GI50 [16] of the same compound?
A: > 100 µM (inactive)

Q: And the GI50 [17]?
A: 38.9 µM (inactive)

Q: What about the GI50 [18] of the same compound?
A: 28.4 µM (inactive)

Q: Which GI50 [1] does the source give for `COc1ccc(CC2COc3cc(O)cc(O)c3C2=O)cc1O` (stereo not drawn) here?
A: 3.86 µM (inactive)

Q: And the GI50 [3]?
A: 3.99 µM (inactive)

Q: And the GI50 [4]?
A: 9.48 µM (inactive)

Q: And the GI50 [5]?
A: 5.13 µM (inactive)

Q: And the GI50 [6]?
A: 82.2 µM (inactive)

Q: And the GI50 [7]?
A: 2.64 µM (inactive)

Q: And the GI50 [8]?
A: 7.08 µM (inactive)

Q: What about the GI50 [9] of the same compound?
A: 24.5 µM (inactive)

Q: And the GI50 [10]?
A: 1.47 µM (inactive)

Q: What about the GI50 [11] of the same compound?
A: 2.4 µM (inactive)

Q: And the GI50 [12]?
A: 1.03 µM (active)

Q: What about the GI50 [13] of the same compound?
A: 4.89 µM (inactive)

Q: What about the GI50 [14] of the same compound?
A: 6.49 µM (inactive)

Q: And the GI50 [15]?
A: 9.75 µM (inactive)

Q: What about the GI50 [16] of the same compound?
A: 1.32 µM (inactive)

Q: What about the GI50 [17] of the same compound?
A: 6.21 µM (inactive)

Q: And the GI50 [18]?
A: 3.13 µM (inactive)

Q: For `C[N+](C)(C)c1ncnc2c1ncn2C1CC(O)C(CO)O1` (stereo not drawn), which GI50 [1] is on record?
A: > 100 µM (inactive)

Q: What about the GI50 [2] of the same compound?
A: > 100 µM (inactive)

Q: What about the GI50 [3] of the same compound?
A: > 100 µM (inactive)

Q: What about the GI50 [4] of the same compound?
A: > 100 µM (inactive)

Q: And the GI50 [5]?
A: > 100 µM (inactive)

Q: And the GI50 [6]?
A: > 100 µM (inactive)

Q: What about the GI50 [19] of the same compound?
A: > 100 µM (inactive)

Q: What about the GI50 [7] of the same compound?
A: > 100 µM (inactive)

Q: And the GI50 [8]?
A: > 100 µM (inactive)

Q: And the GI50 [9]?
A: > 100 µM (inactive)

Q: And the GI50 [10]?
A: > 100 µM (inactive)

Q: And the GI50 [11]?
A: > 100 µM (inactive)

Q: What about the GI50 [12] of the same compound?
A: > 100 µM (inactive)

Q: What about the GI50 [13] of the same compound?
A: > 100 µM (inactive)

Q: What about the GI50 [14] of the same compound?
A: > 100 µM (inactive)

Q: And the GI50 [15]?
A: > 100 µM (inactive)

Q: What about the GI50 [16] of the same compound?
A: > 100 µM (inactive)

Q: What about the GI50 [17] of the same compound?
A: > 100 µM (inactive)

Q: And the GI50 [18]?
A: > 100 µM (inactive)

Q: How did the GI50 [1] turn out when `Cn1c(=O)c2[nH]c(/N=N/N3CCN(CCO)CC3)nc2n(C)c1=O` was run?
A: > 100 µM (inactive)

Q: And the GI50 [2]?
A: > 100 µM (inactive)

Q: What about the GI50 [3] of the same compound?
A: > 100 µM (inactive)

Q: What about the GI50 [4] of the same compound?
A: > 100 µM (inactive)

Q: And the GI50 [5]?
A: > 100 µM (inactive)

Q: And the GI50 [6]?
A: 18.8 µM (inactive)

Q: What about the GI50 [7] of the same compound?
A: 67 µM (inactive)

Q: And the GI50 [8]?
A: > 100 µM (inactive)

Q: What about the GI50 [9] of the same compound?
A: > 100 µM (inactive)

Q: What about the GI50 [10] of the same compound?
A: > 100 µM (inactive)

Q: And the GI50 [11]?
A: > 100 µM (inactive)

Q: And the GI50 [12]?
A: > 100 µM (inactive)

Q: And the GI50 [13]?
A: > 100 µM (inactive)

Q: And the GI50 [14]?
A: > 100 µM (inactive)

Q: What about the GI50 [15] of the same compound?
A: > 100 µM (inactive)

Q: And the GI50 [16]?
A: > 100 µM (inactive)

Q: What about the GI50 [17] of the same compound?
A: > 100 µM (inactive)

Q: And the GI50 [18]?
A: > 100 µM (inactive)
